Data taken from PMC4306130 (Scientific Reports, 2015).

Biological target: c-Met (Homo sapiens, UniProt P08581)
Experiment: radiometric protein kinase assay with recombinant human c-Met
Assay type: biochemical

Chain of c-Met (P08581 25-307): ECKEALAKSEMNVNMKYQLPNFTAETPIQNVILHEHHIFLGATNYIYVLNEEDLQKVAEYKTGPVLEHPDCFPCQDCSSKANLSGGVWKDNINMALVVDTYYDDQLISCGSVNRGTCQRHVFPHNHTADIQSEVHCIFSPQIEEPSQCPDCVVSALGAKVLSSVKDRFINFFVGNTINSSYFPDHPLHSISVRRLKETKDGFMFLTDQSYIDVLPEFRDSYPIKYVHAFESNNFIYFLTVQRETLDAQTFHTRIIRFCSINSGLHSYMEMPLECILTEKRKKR
Chain of c-Met (P08581 308-1390): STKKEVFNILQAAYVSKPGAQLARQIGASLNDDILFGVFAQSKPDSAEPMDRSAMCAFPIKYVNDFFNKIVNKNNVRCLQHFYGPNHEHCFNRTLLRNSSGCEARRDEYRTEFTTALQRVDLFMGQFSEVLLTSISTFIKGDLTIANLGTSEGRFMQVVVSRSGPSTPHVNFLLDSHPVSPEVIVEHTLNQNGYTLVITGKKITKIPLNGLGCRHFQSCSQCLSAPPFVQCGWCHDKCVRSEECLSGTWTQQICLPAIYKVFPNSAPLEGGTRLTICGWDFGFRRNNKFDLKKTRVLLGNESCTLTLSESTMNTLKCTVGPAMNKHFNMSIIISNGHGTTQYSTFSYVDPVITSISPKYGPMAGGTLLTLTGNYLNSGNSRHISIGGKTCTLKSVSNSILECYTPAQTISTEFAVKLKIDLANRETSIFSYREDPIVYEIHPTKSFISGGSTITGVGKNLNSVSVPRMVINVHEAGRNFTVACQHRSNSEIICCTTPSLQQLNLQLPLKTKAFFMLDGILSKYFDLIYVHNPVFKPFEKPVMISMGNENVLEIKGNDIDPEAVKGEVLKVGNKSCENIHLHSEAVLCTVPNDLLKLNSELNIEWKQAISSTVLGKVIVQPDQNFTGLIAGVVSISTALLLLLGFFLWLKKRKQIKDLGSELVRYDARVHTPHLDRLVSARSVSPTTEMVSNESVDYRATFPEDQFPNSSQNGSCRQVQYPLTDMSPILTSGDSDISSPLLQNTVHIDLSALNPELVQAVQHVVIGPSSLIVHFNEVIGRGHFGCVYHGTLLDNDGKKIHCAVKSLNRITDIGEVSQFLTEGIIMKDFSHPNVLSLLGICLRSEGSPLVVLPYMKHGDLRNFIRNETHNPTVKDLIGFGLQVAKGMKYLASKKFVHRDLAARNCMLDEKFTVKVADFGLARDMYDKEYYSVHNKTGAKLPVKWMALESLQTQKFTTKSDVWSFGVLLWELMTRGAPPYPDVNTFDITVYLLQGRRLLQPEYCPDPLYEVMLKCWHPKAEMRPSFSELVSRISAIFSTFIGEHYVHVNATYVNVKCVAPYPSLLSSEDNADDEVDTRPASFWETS

Q: Which IC50 does the source give for COc1c(C=O)c(O)cc2c1C(=O)c1ccccc1C2=O [damnacanthal, 3-hydroxy-1-methoxy-anthraquinone-2-aldehyde] here?
A: 5.1 ± 0.1 µM
